Reference: patent US20240390369A1, “METHODS FOR DETERMINING RESPONSIVENESS TO TYK2 INHIBITORS” (Bristol-Myers Squibb Company, priority 2021, published 2024)
Where “and” joins values, the source holds several entries; their conditions need not be identical. Identical values can stand only once.

System: patients with psoriatic arthritis
Assay: Phase 2 trial in psoriatic arthritis: PASI75 response at week 16
Assay type: in vivo, human
Details: for Interaction Term for PASI75 response (ratio of odds ratios): week 16; for PASI75 response rate over time: placebo, sixteen-week treatment period
Procedure: In a double-blind Phase 2 trial, 203 patients with psoriatic arthritis were randomized into three groups: deucravacitinib 6 mg once daily (N=70), deucravacitinib 12 mg once daily (N=67), or placebo (N=66). All subjects had active psoriatic arthritis according to the Classification Criteria for Psoriatic Arthritis (CASPAR); for active disease, these criteria required ≥3 tender joint count, ≥3 swollen joint count, and a C-reactive protein level above 3 mg/L. Other inclusion criteria included the following: presence of at least one plaque psoriasis lesion, and prior treatment failure with a non-biologic disease modifying anti-rheumatic drug, a non-steroidal anti-inflammatory drug, or a steroid. With respect to treatment history, approximately 70% of subjects had not received prior treatment with a biologic and were biologic naïve, while up to 30% of subjects had failed or had been intolerant to one TNF-inhibitor (TNF=Tumor necrosis factor, also known as TNFα). Randomization was stratified by prior TNF-inhibitor use (experienced/naïve) and body weight (<90 kg and ≥90 kg).
Clinical measures included the Psoriasis […] (PASI) score for skin psoriasis, American College of Rheumatology 20 (ACR20) response, Psoriatic Arthritis Disease Activity Score (PASDAS), Health Assessment Questionnaire-Disability Index (HAQ-DI), and Disease Activity Score 28 CRP (DAS28). To evaluate the predictive value of different protein measurements for the clinical response to deucravacitinib, baseline protein concentrations for responders and non-responders, as defined by ACR20 or PASI75 at week 16, were compared for each arm (placebo, 6 mg deucravacitinib once-daily, and 12 mg deucravacitinib once-daily).
In addition, a logistic regression model was fit, to determine whether baseline disease score (dichotomized by the median baseline score, into baseline score high and baseline score low groups) was associated with response status. The model generated an odds ratio for each dosed arm versus placebo, in baseline score high and baseline score low groups.
Boxplots for baseline protein level by response were generated with a horizontal line indicating the median protein level at baseline. For each treatment arm, a two-sample t-test was performed to test whether mean baseline serum protein level was different in responders versus non-responders. A Wilcoxon rank sum test (Mann-Whitney U test) was also performed to evaluate the difference in median serum protein level between responders and non-responders. Further, barplots of ACR20 and PASI75 response rate at week 16 for each treatment arm were generated for all subjects (protein level high and protein level low subjects, dichotomized according to median baseline level). Line plots of ACR20 and PASI75 response rate over time for each treatment arm were generated for protein level high and protein level low groups. Logistic regression models were also fit to evaluate associations between baseline protein levels and clinical outcome.
For certain analyses described herein, patients were dichotomized by median values (e.g., of the proteins listed above or other measures) into “high” and “low” groups, such that the high group had values above the median and the low group had values less than or equal to the median.
In addition, logistic regression models were fit for response measures ACR20 and PASI75, to generate the odds ratio of each of the deucravacitinib treatment arms versus placebo, in BD2-high and BD2-low groups. The following logistic regression models were used: • For ACR20 response status: ACR20 (Y/N)=treatment arm+BD2 group+treatment arm*BD2 group+TNF-inhibitor use+baseline weight (continuous). • For PASI75 response status: PASI75 (Y/N)=treatment arm+BD2 group+treatment arm*BD2 group+TNF-inhibitor use+baseline weight (continuous). […]

[1] = 6 mg QD, Above median baseline CRP level
[2] = 6 mg QD, Below median baseline CRP level
[3] = 12 mg QD, Above median baseline CRP level
[4] = 12 mg QD, Below median baseline CRP level

## [2H]C([2H])([2H])NC(=O)c1nnc(NC(=O)C2CC2)cc1Nc1cccc(-c2ncn(C)n2)c1OC [deucravacitinib, 6-(cyclopropanecarboxamido)-4-((2-methoxy-3-(1-methyl-1H-1,2,4-triazol-3-yl)phenyl)amino)-N-(methyl-d3)pyridazine-3-carboxamide]
6 mg QD vs placebo: BD2 high versus BD2 low
  Interaction Term for PASI75 response (ratio of odds ratios): 11.628
6 mg QD vs placebo: CRP high versus CRP low
  Interaction Term: treatment arm*CRP group, PASI75: 1.67
6 mg QD vs placebo: CRP-high versus CRP-low, adjusted for baseline PASI score
  Interaction Term: treatment arm*CRP group, PASI75: 1.67
6 mg QD vs placebo: IL-17A high versus IL-17A low, adjusted for baseline PASI score
  Interaction Term: treatment arm*IL-17A group, PASI75: 22.889
6 mg QD vs placebo: IL-17A high versus IL-17A low
  Interaction Term for PASI75 response (ratio of odds ratios): 22.851
6 mg QD vs placebo: baseline PASI high versus PASI low
  Interaction Term for PASI75 response (ratio of odds ratios): 5.51 and 5.514
6 mg QD, 12 mg QD, BD2-high and BD2-low groups (FIG. 9)
  PASI75 response rate over time: dose-dependent PASI75 response rate over time was observed in the BD2-high group but not in the BD2-low group
6 mg QD, 12 mg QD, CRP-high and CRP-low groups (FIG. 40)
  PASI75 response rate over time: higher response rates than the placebo arm
6 mg QD, 12 mg QD, IL-17A-high and IL-17A-low groups (FIG. 23)
  PASI75 response rate over time: dose-dependent PASI75 response over time was observed in IL-17A-high but not in IL-17A-low PsA patients
6 mg QD, 12 mg QD, IL-19-high and IL-19-low groups (FIG. 16)
  PASI75 response rate over time: dose-dependent PASI75 response over time was observed in IL-19-high but not in IL-19-low PsA patients
[1]
  Number of subjects, PASI75 Non-responder at week 16: 17
  Number of subjects, PASI75 Responder at week 16: 16
[2]
  Number of subjects, PASI75 Non-responder at week 16: 17
  Number of subjects, PASI75 Responder at week 16: 9
6 mg QD, CRP-high-PASI-high
  Number of subjects, PASI75 Non-responder: 4
  Number of subjects, PASI75 Responder: 11
6 mg QD, CRP-high-PASI-low
  Number of subjects, PASI75 Non-responder: 13
  Number of subjects, PASI75 Responder: 5
6 mg QD, CRP-low-PASI-high
  Number of subjects, PASI75 Non-responder: 7
  Number of subjects, PASI75 Responder: 5
6 mg QD, CRP-low-PASI-low
  Number of subjects, PASI75 Non-responder: 10
  Number of subjects, PASI75 Responder: 4
6 mg QD, PASI75 non-responder at week 16, above baseline PASI median 6.6
  Number of subjects: 11
6 mg QD, PASI75 non-responder at week 16, above median baseline BD2 level
  Number of subjects: 17
6 mg QD, PASI75 non-responder at week 16, above median baseline IL-17A level
  Number of subjects: 14
6 mg QD, PASI75 non-responder at week 16, above median baseline IL-19 level
  Number of subjects: 18
6 mg QD, PASI75 non-responder at week 16, below baseline PASI median 6.6
  Number of subjects: 23
6 mg QD, PASI75 non-responder at week 16, below median baseline BD2 level
  Number of subjects: 16
6 mg QD, PASI75 non-responder at week 16, below median baseline IL-17A level
  Number of subjects: 20
6 mg QD, PASI75 non-responder at week 16, below median baseline IL-19 level
  Number of subjects: 16
6 mg QD, PASI75 non-responder, BD2-high-PASI-high
  Number of subjects: 8
6 mg QD, PASI75 non-responder, BD2-high-PASI-low
  Number of subjects: 12
6 mg QD, PASI75 non-responder, BD2-low-PASI-high
  Number of subjects: 3
6 mg QD, PASI75 non-responder, BD2-low-PASI-low
  Number of subjects: 11
6 mg QD, PASI75 non-responder, IL-17A-high-PASI-high
  Number of subjects: 8
6 mg QD, PASI75 non-responder, IL-17A-high-PASI-low
  Number of subjects: 6
6 mg QD, PASI75 non-responder, IL-17A-low-PASI-high
  Number of subjects: 3
6 mg QD, PASI75 non-responder, IL-17A-low-PASI-low
  Number of subjects: 17
6 mg QD, PASI75 non-responder, IL-19-high-PASI-high
  Number of subjects: 9
6 mg QD, PASI75 non-responder, IL-19-high-PASI-low
  Number of subjects: 9
6 mg QD, PASI75 non-responder, IL-19-low-PASI-high
  Number of subjects: 2
6 mg QD, PASI75 non-responder, IL-19-low-PASI-low
  Number of subjects: 14
6 mg QD, PASI75 responder at week 16, above baseline PASI median 6.6
  Number of subjects: 16
6 mg QD, PASI75 responder at week 16, above median baseline BD2 level
  Number of subjects: 22
6 mg QD, PASI75 responder at week 16, above median baseline IL-17A level
  Number of subjects: 19
6 mg QD, PASI75 responder at week 16, above median baseline IL-19 level
  Number of subjects: 19
6 mg QD, PASI75 responder at week 16, below baseline PASI median 6.6
  Number of subjects: 9
6 mg QD, PASI75 responder at week 16, below median baseline BD2 level
  Number of subjects: 15
6 mg QD, PASI75 responder at week 16, below median baseline IL-17A level
  Number of subjects: 6
6 mg QD, PASI75 responder at week 16, below median baseline IL-19 level
  Number of subjects: 6
6 mg QD, PASI75 responder, BD2-high-PASI-high
  Number of subjects: 14
6 mg QD, PASI75 responder, BD2-high-PASI-low
  Number of subjects: 4
6 mg QD, PASI75 responder, BD2-low-PASI-high
  Number of subjects: 2
6 mg QD, PASI75 responder, BD2-low-PASI-low
  Number of subjects: 5
6 mg QD, PASI75 responder, IL-17A-high-PASI-high
  Number of subjects: 12
6 mg QD, PASI75 responder, IL-17A-high-PASI-low
  Number of subjects: 7
6 mg QD, PASI75 responder, IL-17A-low-PASI-high
  Number of subjects: 4
6 mg QD, PASI75 responder, IL-17A-low-PASI-low
  Number of subjects: 2
6 mg QD, PASI75 responder, IL-19-high-PASI-high
  Number of subjects: 13
6 mg QD, PASI75 responder, IL-19-high-PASI-low
  Number of subjects: 6
6 mg QD, PASI75 responder, IL-19-low-PASI-high
  Number of subjects: 3
6 mg QD, PASI75 responder, IL-19-low-PASI-low
  Number of subjects: 3
12 mg QD vs placebo: BD2 high versus BD2 low
  Interaction Term for PASI75 response (ratio of odds ratios): 14.233
12 mg QD vs placebo: CRP high versus CRP low
  Interaction Term: treatment arm*CRP group, PASI75: 2.63
12 mg QD vs placebo: CRP-high versus CRP-low, adjusted for baseline PASI score
  Interaction Term: treatment arm*CRP group, PASI75: 3.18
12 mg QD vs placebo: IL-17A high versus IL-17A low, adjusted for baseline PASI score
  Interaction Term: treatment arm*IL-17A group, PASI75: 13.222
12 mg QD vs placebo: IL-17A high versus IL-17A low
  Interaction Term for PASI75 response (ratio of odds ratios): 12.089
12 mg QD vs placebo: baseline PASI high versus PASI low
  Interaction Term for PASI75 response (ratio of odds ratios): 6.42
[3]
  Number of subjects, PASI75 Non-responder at week 16: 7
  Number of subjects, PASI75 Responder at week 16: 18
[4]
  Number of subjects, PASI75 Non-responder at week 16: 14
  Number of subjects, PASI75 Responder at week 16: 13
12 mg QD, CRP-high-PASI-high
  Number of subjects, PASI75 Non-responder: 4
  Number of subjects, PASI75 Responder: 10
12 mg QD, CRP-high-PASI-low
  Number of subjects, PASI75 Non-responder: 3
  Number of subjects, PASI75 Responder: 8
12 mg QD, CRP-low-PASI-high
  Number of subjects, PASI75 Non-responder: 2
  Number of subjects, PASI75 Responder: 10
12 mg QD, CRP-low-PASI-low
  Number of subjects, PASI75 Non-responder: 12
  Number of subjects, PASI75 Responder: 3
12 mg QD, PASI75 non-responder at week 16, above baseline PASI median 6.6
  Number of subjects: 6
12 mg QD, PASI75 non-responder at week 16, above median baseline BD2 level
  Number of subjects: 11
12 mg QD, PASI75 non-responder at week 16, above median baseline IL-17A level
  Number of subjects: 8
12 mg QD, PASI75 non-responder at week 16, above median baseline IL-19 level
  Number of subjects: 6
12 mg QD, PASI75 non-responder at week 16, below baseline PASI median 6.6
  Number of subjects: 15
12 mg QD, PASI75 non-responder at week 16, below median baseline BD2 level
  Number of subjects: 13
12 mg QD, PASI75 non-responder at week 16, below median baseline IL-17A level
  Number of subjects: 13
12 mg QD, PASI75 non-responder at week 16, below median baseline IL-19 level
  Number of subjects: 14
12 mg QD, PASI75 non-responder, BD2-high-PASI-high
  Number of subjects: 5
12 mg QD, PASI75 non-responder, BD2-high-PASI-low
  Number of subjects: 5
12 mg QD, PASI75 non-responder, BD2-low-PASI-high
  Number of subjects: 1
12 mg QD, PASI75 non-responder, BD2-low-PASI-low
  Number of subjects: 10
12 mg QD, PASI75 non-responder, IL-17A-high-PASI-high
  Number of subjects: 5
12 mg QD, PASI75 non-responder, IL-17A-high-PASI-low
  Number of subjects: 3
12 mg QD, PASI75 non-responder, IL-17A-low-PASI-high
  Number of subjects: 1
12 mg QD, PASI75 non-responder, IL-17A-low-PASI-low
  Number of subjects: 12
12 mg QD, PASI75 non-responder, IL-19-high-PASI-high
  Number of subjects: 3
12 mg QD, PASI75 non-responder, IL-19-high-PASI-low
  Number of subjects: 3
12 mg QD, PASI75 non-responder, IL-19-low-PASI-high
  Number of subjects: 2
12 mg QD, PASI75 non-responder, IL-19-low-PASI-low
  Number of subjects: 12
12 mg QD, PASI75 responder at week 16, above baseline PASI median 6.6
  Number of subjects: 20
12 mg QD, PASI75 responder at week 16, above median baseline BD2 level
  Number of subjects: 23
12 mg QD, PASI75 responder at week 16, above median baseline IL-17A level
  Number of subjects: 18
